Activity calls are given as the source filed them. The calls are words filed in the database; no cut-off is given here.

For series [1], the target named is T1, Tyrosinase (Mus musculus) (UniProt P11344).
T1 sequence (whole entry): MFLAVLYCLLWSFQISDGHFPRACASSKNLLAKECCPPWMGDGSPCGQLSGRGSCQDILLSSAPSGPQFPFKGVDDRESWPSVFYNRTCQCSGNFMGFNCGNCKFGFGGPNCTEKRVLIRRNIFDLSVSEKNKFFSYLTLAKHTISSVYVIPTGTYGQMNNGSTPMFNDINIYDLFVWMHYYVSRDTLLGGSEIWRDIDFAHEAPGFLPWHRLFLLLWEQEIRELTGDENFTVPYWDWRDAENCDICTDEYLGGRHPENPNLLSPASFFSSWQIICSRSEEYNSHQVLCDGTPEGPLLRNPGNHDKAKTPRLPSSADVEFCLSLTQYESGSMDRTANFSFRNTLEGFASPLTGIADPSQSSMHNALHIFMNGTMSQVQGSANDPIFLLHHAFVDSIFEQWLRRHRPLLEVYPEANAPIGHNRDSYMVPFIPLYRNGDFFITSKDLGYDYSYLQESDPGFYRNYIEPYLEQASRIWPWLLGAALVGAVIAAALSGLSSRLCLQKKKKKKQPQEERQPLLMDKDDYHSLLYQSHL
The series can be described thus: Inhibition of tyrosinase in alpha-MSH-stimulated mouse B16F10 cells assessed as inhibition of L-DOPA oxidation at 40 to 120 uM after 72 hrs by spectrophotometry. It counts as cell-based. The following applies: B16-F10.

Another series concerns B16-F10. Nature of the series: Antimelanogenic activity in mouse B16F10 cells assessed as inhibition of alpha-MSH-induced melanin formation at 40 to 120 uM after 72 hrs by spectrophotometry. The class given is functional, cell-based.
Series [2] concerns the target T2, Tyrosinase (Agaricus bisporus) (UniProt O42713).
T2 sequence (whole entry): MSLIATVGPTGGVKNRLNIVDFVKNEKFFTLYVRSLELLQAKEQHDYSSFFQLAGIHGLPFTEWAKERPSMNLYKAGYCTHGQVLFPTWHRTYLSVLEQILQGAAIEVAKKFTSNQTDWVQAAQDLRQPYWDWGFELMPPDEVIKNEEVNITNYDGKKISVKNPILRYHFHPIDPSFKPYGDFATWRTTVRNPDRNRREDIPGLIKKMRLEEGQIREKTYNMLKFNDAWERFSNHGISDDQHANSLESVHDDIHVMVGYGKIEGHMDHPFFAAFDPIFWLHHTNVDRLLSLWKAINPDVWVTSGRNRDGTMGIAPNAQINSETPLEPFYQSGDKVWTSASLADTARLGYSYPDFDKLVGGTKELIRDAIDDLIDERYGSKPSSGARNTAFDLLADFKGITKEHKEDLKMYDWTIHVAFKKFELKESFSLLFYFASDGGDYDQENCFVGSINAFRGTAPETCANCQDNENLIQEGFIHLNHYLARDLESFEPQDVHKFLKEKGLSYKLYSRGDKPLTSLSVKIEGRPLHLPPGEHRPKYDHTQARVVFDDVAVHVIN
The series can be described thus: (§1) Inhibition of mushroom tyrosinase hydroxylation activity using L-tyrosine as substrate after 30 mins by spectrophotometry.

The target of a further series is T3, Tyrosinase (Agaricus bisporus, UniProt O42713).
T3 sequence (O42713 whole entry): T2 sequence (whole entry)
Described as §1.

Series [3] concerns the target T2, Tyrosinase (Agaricus bisporus). The series can be described thus: Inhibition of mushroom tyrosinase hydroxylation activity using L-tyrosine as substrate at 120 uM after 30 mins by spectrophotometry.
The target is the same in series [4]. The series can be described thus: Non-competitive inhibition of mushroom tyrosinase assessed as inhibition of dopachrome formation by Lineweaver-Burk plot analysis.
A short description of series [5]: Cytotoxicity against mouse B16F10 cells assessed as cell viability at 40 to 120 uM after 72 hrs by MTT assay. The class given is cell-based, B16-F10.

Broadly, the inhibition is the relative decrease from the control value, in per cent. Turning to `OC[C@H]1O[C@@H](Oc2ccc(O)cc2)[C@H](O)[C@@H](O)[C@@H]1O`, the inhibition entry in series [1] was “Active”. Further, the result with B16-F10 was Active.

One may read the IC50 as the concentration at which inhibition is half-maximal. Higher therefore signals weaker potency in that assay. Broadly, the viability is the share of living cells, or the viability signal relative to a control. In the case of `Oc1cc(O)cc(Oc2c(O)cc(O)c3c2Oc2c(O)cc(Oc4c(O)cc(Oc5c(O)cc(O)c6c5Oc5c(O)cc(O)cc5O6)cc4O)cc2O3)c1` [DIECKOL], the inhibition entry in series [2] is “Dose-dependent effect”; in series [3] it was 89.3%. Also, at Tyrosinase, 20 µM corresponded to half-maximal inhibition (IC50). Further, the inhibition entry in series [4] and in series [1] was “Active” throughout. For the same compound, in series [5], the viability at 72 h, up to 120 µM was above 95%. In addition, in the series with B16-F10, the result was Active.

These data come from ChEMBL document CHEMBL1926566, “Molecular docking studies of a phlorotannin, dieckol isolated from Ecklonia cava with tyrosinase inhibitory activity” (Bioorg Med Chem, 2012).
